Laboratory results from patent US12497642B2, “Incorporation of unnatural nucleotides and methods of use in vivo thereof” (THE SCRIPPS RESEARCH INSTITUTE, priority 2017, dated 2025).
“And” between values parts separate entries of the source, which are not always exact repeats. Identical values can stand only once.

Columns and labels:
[1] = biological target: T1, Klenow fragment of E. coli DNA polymerase I (Escherichia coli, UniProt P00582); test: Steady-state kinetic assay of unnatural triphosphate insertion; format: biochemical; conditions: insertion of dXTP opposite dY = dTPT3 in template
T1 construct: the Klenow fragment of E. coli DNA polymerase I
T1 sequence (P00582 324-928): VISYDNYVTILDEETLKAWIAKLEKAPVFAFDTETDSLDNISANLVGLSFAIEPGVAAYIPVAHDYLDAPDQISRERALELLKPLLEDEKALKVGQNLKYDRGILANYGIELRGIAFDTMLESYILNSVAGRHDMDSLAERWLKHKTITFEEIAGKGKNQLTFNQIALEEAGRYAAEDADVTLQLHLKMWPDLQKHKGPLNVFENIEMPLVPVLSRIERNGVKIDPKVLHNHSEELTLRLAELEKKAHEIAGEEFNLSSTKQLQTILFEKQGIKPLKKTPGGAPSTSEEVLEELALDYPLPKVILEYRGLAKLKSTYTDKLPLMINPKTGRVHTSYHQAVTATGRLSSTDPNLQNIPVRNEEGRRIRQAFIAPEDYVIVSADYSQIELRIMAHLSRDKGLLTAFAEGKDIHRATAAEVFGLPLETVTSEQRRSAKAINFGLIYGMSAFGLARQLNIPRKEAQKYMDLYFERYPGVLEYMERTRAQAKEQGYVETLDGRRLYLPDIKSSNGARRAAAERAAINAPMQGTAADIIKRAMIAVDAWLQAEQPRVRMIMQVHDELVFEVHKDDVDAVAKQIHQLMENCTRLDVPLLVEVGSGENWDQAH

[2] = test system: OneTaq DNA polymerase; test: PCR amplification fidelity of DNA containing a single UBP (UBP retention in vitro); format: biochemical; conditions: with dTPT3TP, 20 cycles
Source text: The fidelity with which DNA containing a single UBP is PCR amplified was explored using OneTaq DNA polymerase. To quantify fidelity, templates containing the dNaM-dTPT3 UBP were amplified with dTPT3TP and dNaMTP, dPTMOTP or dMTMOTP. Two templates were used where the UBP was flanked by different sequence contexts; T1, where X (X=NaM, or after the first round of replication, NaM, PTNO, or MTMO) is flanked by a 5′ dA and a 3′ dT, and which with X=dNaM is well replicated in the SSO, and T2 where X is flanked by a 5′ dC and a 3′ dG, and which with X=dNaM is poorly replicated in the SSO. DNA was amplified for 20 cycles with extension times of either 1 min or 45 s, with the shorter times used to probe amplification efficiency. After amplification, the DNA was purified and UBP retention was characterized via a second PCR amplification using OneTaq and DeepVent DNA polymerases and a biotinylated analog of dNaMTP, whose product was analyzed by PAGE.

[3] = test system: SSO (strain YZ3); test: UBP retention in vivo in the SSO (biotin shift assay), Example 2; format: cell-based, Escherichia coli
Source text: Thus, to evaluate the UBPs in the in vivo environment of the SSO, Golden Gate assembly was used to construct four derivatives of the pUC19 plasmid containing a single dNaM-dTPT3 UBP, but where it was flanked by one of four different sequence contexts, context 1-4. These sequence contexts show decreasing UBP retention with dNaM-dTPT3. Plasmids were used to transform the SSO (strain YZ3), which was allowed to recover briefly in media containing dTPT3TP and either dNaMTP, dPTMOTP, or dMTMOTP. After transfer to fresh media containing the same triphosphates and ampicillin (to select for plasmid retention), the SSO was allowed to grow to an OD600 of ˜0.7, at which time plasmids were recovered and analyzed for UBP retention the same biotin shift assay described above. FIG. 9 exemplifies the results in vivo.

[4] = test system: semi-synthetic organism (SSO) (strain YZ3); test: Replication and UBP retention in vivo in the semi-synthetic organism (streptavidin biotin shift, PAGE), Example 1; format: cell-based, Escherichia coli; conditions: for UBP retention (%): Table 5, dTPT3TP 25 μM; for UBP retention: context 1, dNaMTP 125 μM; for UBP retention in vivo, in words: dTPT3TP analog paired with dNaMTP, discussion
Method: All bacteria were cultured in 100 μL of liquid 2×YT media (casein peptone 16 g/L, yeast extract 10 g/L, NaCl 5 g/L) supplemented with potassium phosphate (50 mM, pH 7) in 96-well microwell plates. When noted, antibiotics were used at the following concentrations: chloramphenicol, 5 μg/mL; ampicillin, 100 μg/mL. Cell growth, indicated as OD600, was measured using a Perkin Elmer EnVision 2103 Multilabel Reader with a 590/20 nm filter. Unless otherwise stated, molecular biology reagents were purchased from New England Biolabs (Ipswich, MA) and were used according to the manufacturer's protocols. As necessary, purification of nucleic acids was accomplished by micro-elution columns (Zymo Research Corp; Irvine, CA). All natural oligonucleotides were purchased from IDT (San Diego, CA), and oligonucleotides containing dNaM were synthesized by Biosearch Technologies (Petaluma, CA) with purification by reverse phase cartridge. Unnatural nucleotide triphosphates were prepared, and confirmed by MALDI-TOF and UV/Vis.
Plasmids containing the dNaM-dTPT3 UBP were prepared and used to transform the semi-synthetic organism (SSO). To create a template for in vivo replication assays, Golden Gate assembly was used to construct a derivative of the pUC19 plasmid in which a single dNaM-dTPT3 UBP was embedded within the TK1 sequence ([…]; […]), a context within which the UBP is well replicated in the SSO. Plasmids were then used to transform the SSO (strain YZ3). Following transformation, the SSO was allowed to recover at 37° C. for 1 h in media containing dNaMTP (125 μM) and dTPT3TP (25 μM). Cells were pelleted by centrifugation, resuspended in fresh media lacking unnatural triphosphates, split into 100-μL aliquots and then used to inoculate cultures containing different pairs of unnatural triphosphates at the specified concentrations. When the cell density reached an OD600 of ˜0.7, cells were pelleted and plasmids were recovered and PCR amplified with d5SICSTP and a biotinylated analog of dNaMTP, and UBP retention was determined by comparing the intensity of the streptavidin shifted and unshifted bands via PAGE.

[5] = PCR amplification in vitro (SAR named in the discussion); format: biochemical; conditions: paired with any analog
[6] = template T1 (5′ dA, 3′ dT), extension time 45 s
[7] = template T1 (5′ dA, 3′ dT), extension time 1 min
[8] = template T2 (5′ dC, 3′ dG), extension time 45 s
[9] = template T2 (5′ dC, 3′ dG), extension time 1 min
[10] = context d(ANaMT) / AXT, dTPT3TP 25 μM, triphosphate 5 μM
[11] = context d(ANaMT) / AXT, dTPT3TP 25 μM, triphosphate 10 μM
[12] = context d(ANaMT), with dTPT3TP, triphosphate 25 μM
[13] = context d(ANaMT), with dTPT3TP, triphosphate 150 μM
[14] = context d(CNaMC), with dTPT3TP, triphosphate 25 μM
[15] = context d(CNaMC), with dTPT3TP, triphosphate 150 μM
[16] = context d(CNaMG), with dTPT3TP, triphosphate 25 μM
[17] = context d(CNaMG), with dTPT3TP, triphosphate 150 μM

Structure (SMILES) | Km [1] [nM] | kcat [1] | UBP retention after PCR amplification [2, 6] [%] | UBP retention after PCR amplification [2, 7] [%] | UBP retention after PCR amplification [2, 8] [%] | UBP retention after PCR amplification [2, 9] [%] | UBP retention [3, 10] | UBP retention [3, 11] | UBP retention [3, 12] [%] | UBP retention [3, 13] [%] | UBP retention [3, 14] [%] | UBP retention [3, 15] [%] | UBP retention [3, 16] [%] | UBP retention [3, 17] [%] | PCR amplification [5] | UBP retention in vivo, in words [4] | other results
COc1cc2ccsc2cc1C1CC(O)C(COP(=O)(O)OP(=O)(O)OP(=O)(O)O)O1 (centres unmarked) [dMTMOTP] | 220 | 8.5 min⁻¹ and 8.52 ± 1.7 min⁻¹ | 84 | 80 | 58 | 58 | 59% and 59±24% | 80% and 80±11% | 96 | 99 | 19 | 62 | 5 | 8 | – | – | –
COc1cc2ccccc2cc1[C@H]1C[C@H](O)[C@@H](COP(=O)(O)OP(=O)(O)OP(=O)(O)O)O1 [dNaMTP, reference compound] | 90 | 10.7 min⁻¹ | 95 | 100 | 85 | 86 | 17% and 17±21% | 29% and 29±11% | 82 | 98 | 7 | 44 | 5 | 6 | – | – | UBP retention (%) ([4]; sequence context 1 (AXT), dNaMTP or dCNMOTP 25 μM): 85%; UBP retention (%) ([4]; sequence context 1 (AXT), dNaMTP or dCNMOTP 25 μM, listed as dNaM): 85 ± 10%; UBP retention (%) ([4]; sequence context 1 (AXT), dNaMTP or dCNMOTP 125 μM): 99 ± 3%; UBP retention (%) ([4]; sequence context 2 (AXA), dNaMTP or dCNMOTP 25 μM): 36%; UBP retention (%) ([4]; sequence context 2 (AXA), dNaMTP or dCNMOTP 25 μM, listed as dNaM): 36 ± 29%; UBP retention (%) ([4]; sequence context 2 (AXA), dNaMTP or dCNMOTP 125 μM): 73%; UBP retention (%) ([4]; sequence context 2 (AXA), dNaMTP or dCNMOTP 125 μM, listed as dNaM): 73 ± 21%; UBP retention (%) ([4]; sequence context 3 (CXC), dNaMTP or dCNMOTP 25 μM): no retention; UBP retention (%) ([4]; sequence context 3 (CXC), dNaMTP or dCNMOTP 25 μM, listed as dNaM): 7 ± 2%; UBP retention (%) ([4]; sequence context 3 (CXC), dNaMTP or dCNMOTP 125 μM): 26%; UBP retention (%) ([4]; sequence context 3 (CXC), dNaMTP or dCNMOTP 125 μM, listed as dNaM): 26 ± 16%; UBP retention (%) ([4]; sequence context 4 (CXG), dNaMTP or dCNMOTP 25 μM): not retained significantly; UBP retention (%) ([4]; sequence context 4 (CXG), dNaMTP or dCNMOTP 25 μM, listed as dNaM): 9 ± 1%; UBP retention (%) ([4]; sequence context 4 (CXG), dNaMTP or dCNMOTP 125 μM): not retained significantly; UBP retention (%) ([4]; sequence context 4 (CXG), dNaMTP or dCNMOTP 125 μM, listed as dNaM): 13 ± 2%
O=c1c2cccnc2ccn1C1CC(O)C(COP(=O)(O)OP(=O)(O)OP(=O)(O)O)O1 (centres unmarked) [dNICS] | – | – | – | – | – | – | – | – | – | – | – | – | – | – | do not support PCR amplification | supports UBP retention reasonably well | UBP retention ([4]; dTPT3TP analog 125 μM): significant UBP retention; UBP retention in vivo, in words ([4]; listed as dNICSTP): reasonable retention in vivo
Cc1ccc2c(=O)n(C3CC(O)C(COP(=O)(O)OP(=O)(O)OP(=O)(O)O)O3)ccc2c1 (centres unmarked) [d5MICSTP] | – | – | – | – | – | – | – | – | – | – | – | – | – | – | do not support PCR amplification | reasonable retention in vivo | UBP retention ([4]; dTPT3TP analog 10 μM): significant retention; UBP retention in vivo, in words ([4]; listed as d5MICS): reasonably well, but only at low concentration
COc1cc2sccc2cc1[C@H]1C[C@H](O)[C@@H](COP(=O)(O)OP(=O)(O)OP(=O)(O)O)O1 [dPTMOTP] | 80 | 19.4 min⁻¹ and 19.4 ± 1.2 min⁻¹ | 90 | 98 | 74 | 78 | 77% and 77±22% | 92% and 92±6% | 99 | 98 | 55 | 97 | 2 | 7 | – | – | toxicity to cells ([3]; SSO cells, concentration matrix 5-150 μM, context CXC): not toxic to cells; effective concentration can be dropped to ([3]; context CXC (difficult to replicate sequences)): 100 µM; UBP retention (Avg) ([3]; context CXC, dPTMOTP 5 μM, dTPT3TP 5 μM): 7%; UBP retention (Avg) ([3]; context CXC, dPTMOTP 5 μM, dTPT3TP 25 μM): 7%; UBP retention (Avg) ([3]; context CXC, dPTMOTP 5 μM, dTPT3TP 100 μM): 10%; UBP retention (Avg) ([3]; context CXC, dPTMOTP 5 μM, dTPT3TP 150 μM): 7%; UBP retention (Avg) ([3]; context CXC, dPTMOTP 25 μM, dTPT3TP 5 μM): 18%; UBP retention (Avg) ([3]; context CXC, dPTMOTP 25 μM, dTPT3TP 25 μM): 59%; UBP retention (Avg) ([3]; context CXC, dPTMOTP 25 μM, dTPT3TP 100 μM): 63%; UBP retention (Avg) ([3]; context CXC, dPTMOTP 25 μM, dTPT3TP 150 μM): 47%; UBP retention (Avg) ([3]; context CXC, dPTMOTP 100 μM, dTPT3TP 5 μM): 58%; UBP retention (Avg) ([3]; context CXC, dPTMOTP 100 μM, dTPT3TP 25 μM): 89%; UBP retention (Avg) ([3]; context CXC, dPTMOTP 100 μM, dTPT3TP 100 μM): 93%; UBP retention (Avg) ([3]; context CXC, dPTMOTP 100 μM, dTPT3TP 150 μM): 66%; UBP retention (Avg) ([3]; context CXC, dPTMOTP 150 μM, dTPT3TP 5 μM): 61%; UBP retention (Avg) ([3]; context CXC, dPTMOTP 150 μM, dTPT3TP 25 μM): 103%; UBP retention (Avg) ([3]; context CXC, dPTMOTP 150 μM, dTPT3TP 100 μM): 90%; UBP retention (Avg) ([3]; context CXC, dPTMOTP 150 μM, dTPT3TP 150 μM): 64%
